# “Also recorded” adds a separate entry of the source.
# B1: DKK1: canonical Wnt receptor antagonist (R&D Systems 5897-DK-010) (protein, UniProt O94907 32-266, looked up)
# Dickkopf-related protein 1: TLNSVLNSNAIKNLPPPLGGAAGHPGSAVSAAPGILYPGGNKYQTIDNYQPYPCAEDEECGTDEYCASPTRGGDAGVQICLACRKRRKRCMRHAMCCPGNYCKNGICVSSDQNHFRGEIEETITESFGNDHSTLDGYSRRTTLSSKMYHTKGQEGSVCLRSSDCASGLCCARHFWSKICKPVLKEGQVCTKHRRKGSHGLEIFQRCYCGEGLSCRIQKDHHQASNSSRLHTCQRH
# Columns and labels:
# [1] = system: Wnt^+ adipocytes in iWAT and iBAT; experiment: mTOR antagonist treatment of T/L-GFP mice, quantification of Wnt+ adipocytes; type: in vivo, mouse; settings: T/L-GFP adult mice, 600 μg/kg i.p. daily for 5 days, vs vehicle
# Procedure: (§1) For cold-exposure experiments, mice were singly caged and exposed to cold temperature at 6° C. for 2, 4, or 14 consecutive days. For β3-adrenoceptor agonist treatment, adult male mice were injected intraperitoneally with CL316,243 (CAS No. 138908-40-4, product C5976, Sigma-Aldrich Inc., St. Louis, MO) at 1 mg/kg body weight daily for 4 consecutive days prior to sample collection. Age-matched male littermates were treated intraperitoneally with saline as vehicle controls. […]
# (§2) Adipose tissue was fixed in 4% PFA at 4° C. overnight, followed by dehydration through serial ethanol. […] After washing, sections were processed with a Vector TrueVIEW™ Autofluorescence Quenching Kit treatment (Vector Laboratories, Inc, Burlingame, CA, SP-8400) for 5 min to remove unspecific fluorescence on sections due to red blood cells and structural elements such as collagen and elastin. […] Images of tissue samples were captured using a Nikon confocal Microscope A1 HD25 (Nikon Instruments Inc., Melville, NY) and analyzed using ImageJ software (Version 1.51S). For quantification of Wnt^+ adipocytes, we randomly chose 12-18 images from each tissue of one mouse. Microscopic pictures (10× objective) were taken, and the total cell number and the number of GFP^+ adipocytes within each image were counted.
# Wnt^+ adipocytes in iWAT = experiment: β3-adrenoceptor agonist treatment of T/L-GFP mice, beiging in iWAT; type: in vivo, mouse; settings: 1 mg/kg i.p. daily for 4 days
# Procedure: as §1, §2
# Wnt/β-catenin signaling = Wnt/β-catenin signaling activity (TCF/Lef:H2B-GFP reporter) in SVF precursors under pro-adipogenic conditions; type: cell-based, mouse; settings: DKK1 100 ng/ml, IWP-2 5 μM, LF3 10 and 20 μM
# Procedure: (§3) Immortalized cell lines, isolated adipose SVF cells, MEFs, and BMSCs were seeded into plates at the density of 4×10^3 cells/cm^2 (cell line and SVF) or 1.5×10^4 cells/cm2 (BMSCs) in MesenCult™ Expansion medium (Stemcell Technologies Inc., Cambridge, MA, catalog no. 05513), and treated with MesenCult™ Adipogenic Differentiation cocktail (Stemcell, catalog no. 05507) with 90% cell confluence. Cells were cultured for various days after pro-adipogenic induction prior to being harvested for following experiments. Adipogenesis was examined by lipid staining. Briefly, differentiated adipocytes were washed twice with PBS, fixed in 4% paraformaldehyde (PFA) for 15 min, and then stained with Oil Red O solution (Sigma-Aldrich, catalog no. 01391) for 20 min at ambient temperature or with 20 nM BODIPY (dipyrrometheneboron difluoride, catalog no. D3835, Thermo Fisher Scientific) in PBS for 15 min at 37° C. Subsequently, cells were washed with PBS before imaging.
# (§4) For inhibition studies, SVF cells or precursor cell lines, 3 days after pro-adipogenic induction, were treated with each of the following molecules for 4 days: DKK1 (product 5897-DK-010, R&D Systems, Minneapolis, MN) (100 ng/ml), IWP-2 (catalog no. 72122, Stemcell), (5 μM), LF3 (catalog no. 58474, Selleck Chemicals) (10 and 20 μM, or 50 μM on cell lines), and LY294002 (catalog no. S1105, Selleck Chemicals) (2 and 14 μM), along with vehicles (PBS or DMSO).
# iBAT-derived SVF cells = experiment: Adipogenic maturation of SVF-derived adipocytes (Oil Red O staining); type: cell-based, mouse; settings: LF3, dose-dependent
# Procedure: as §3, with “imaging. […]” for “imaging.”
# [2] = system: Wnt^+ adipocytes induced from GFPpos-1 and GFPpos-2 cell lines; experiment: Treatment of induced Wnt+ adipocytes from GFPpos-1 and GFPpos-2 cell lines (GFP signal, cell death); type: cell-based, mouse
# Description: (§5) SVFs of iBAT from adult TCF/Lef:H2B-GFP male mice were separated and collected as described above. Cells at passage 1 were transduced with pUltra-hot-LT LV particles. Two days after transduction, cells were purified by performing FACS to remove mCherry- and Lin+ cells Immortalized cells were subjected to clonal selection through serial limited dilutions. The expression of GFP in cell colonies under pro-adipogenic induction was used as a readout for the accurate establishment of Wnt+ (>95%) and Wnt− (Wnt+=0%) adipocyte cell lines, respectively.
# as §3, §4
# [3] = system: Wnt^− adipocytes induced from GFPneg precursor cell lines; experiment: Treatment of induced Wnt− adipocytes from GFPneg precursor cell lines (viability, maturation); type: cell-based, mouse
# Description: as §5, §3, §4
# [4] = system: uninduced Wnt^+ and Wnt^− precursor cell lines; experiment: Treatment of uninduced Wnt+ and Wnt− precursor cell lines; type: cell-based, mouse; settings: same dose of LF3
# Description: as §5
# […] S1105, Selleck Chemicals) (2 and 14 μM), along with vehicles (PBS or DMSO).
# [5] = system: Wnt^+ adipocytes in iWAT of T/L-DTA mice; experiment: Tamoxifen-induced ablation of Wnt+ adipocytes in T/L-DTA mice; type: in vivo, mouse; settings: 150 mg/kg i.p., 2 days
# Procedure: To ablate Wnt^+ adipocytes in vivo, Fabp4-Flex-DTA mice were crossed with Tcf/Lef-CreERT2 mice to generate Tcf/Lef-CreERT2;Fabp4-Flex-DTA mice (“T/L-DTA” mice), which received 2-day tamoxifen administration via intraperitoneal injection at the dose of 150 mg/kg body weight. […] Forty-eight hours later, T/L-DTA mice and tamoxifen-treated littermate controls (Fabp4-Flex-DTA mice) were housed at 6° C. for 2 days, respectively.
molecule,measurement,setting,value
"CO[C@H]1C[C@@H]2CC[C@@H](C)[C@@](O)(O2)C(=O)C(=O)N2CCCC[C@H]2C(=O)O[C@H]([C@H](C)C[C@@H]2CC[C@@H](OC(=O)C(C)(CO)CO)[C@H](OC)C2)CC(=O)[C@H](C)/C=C(\C)[C@@H](O)[C@@H](OC)C(=O)[C@H](C)C[C@H](C)/C=C/C=C/C=C/1C [temsirolimus, Temsirolimus]",Wnt+ adipocyte numbers in iBAT,[1],dramatically reduced Wnt^+ adipocyte numbers
same,Wnt+ adipocyte numbers in iWAT,[1],dramatically reduced Wnt^+ adipocyte numbers
"C[C@H](Cc1ccc2c(c1)OC(C(=O)[O-])(C(=O)[O-])O2)NC[C@H](O)c1cccc(Cl)c1.[Na+].[Na+] [CL316,243]",proportion of Wnt+ adipocytes in iWAT,Wnt^+ adipocytes in iWAT,unaltered
"Cc1ccc2nc(NC(=O)CSc3nc4c(c(=O)n3-c3ccccc3)SCC4)sc2c1 [1WP-2, IWP-2]",inhibition of Wnt/β-catenin signaling activity,Wnt/β-catenin signaling,failed to
LF3,inhibition of Wnt/β-catenin signaling activity,Wnt/β-catenin signaling,did inhibit
same,adipogenic maturation of SVF-derived adipocytes,iBAT-derived SVF cells,impaired/delayed adipogenic maturation
same,GFP expression in induced Wnt+ adipocytes,"[2]; 50 μM LF3, first day",quenched GFP expression; also recorded: GFP signals are significantly quenched
same,cell number of induced Wnt+ adipocytes,"[2]; 50 μM LF3, one day",obviously reduced cell numbers
same,cell death of induced Wnt+ adipocytes,"[2]; 50 μM LF3, second day",massive cell death; also recorded: Remarkable cell death
same,cell viability of induced Wnt− adipocytes,[3]; LF3,did not affect cell viability
same,maturation of Wnt− adipocytes,[3]; LF3,slowed down the maturation
same,adipogenic capacity of LF3-treated Wnt− adipocytes after return to normal pro-adipogenic medium,"[3]; LF3, rescue experiment",resumed full adipogenic capacity
same,impact on uninduced precursor cell lines,[4],showed no impacts
CC/C(=C(\c1ccccc1)c1ccc(OCCN(C)C)cc1)c1ccccc1 [tamoxifen],ablation of Wnt+ adipocytes in iWAT,[5],about 87%
B1,inhibition of Wnt/β-catenin signaling activity,Wnt/β-catenin signaling,failed to

# From US20240058390A1, “WNT+ ADIPOCYTES, EXOSOMES FROM WNT+ ADIPOCYTES, AND METHODS OF MAKING AND USING THEM” (The Administrators of the Tulane Educational Fund, priority 2020, published 2024)
